Measurements from patent US5356882A, “Antiviral pyrimidine nucleosides” (University of Birmingham, priority 1989, dated 1994).

What was measured:
[1] = system: HSV1; test: Anti-HSV Activity, plaque reduction assay in Vero cells (HSV-1 strain SC16); format: cell-based, Herpes Simplex Virus type 1 (strain SC16)
Experimental: (§1) Herpes Simplex Virus types 1 (HSV 1) and 2 (HSV2) were assayed in monolayers of Vero cells in multiwell trays. The virus strains used were SC16 and 186 for HSV-1 and HSV-2 respectively. Activity of compounds was determined in the plaque reduction assay, in which a cell monolayer was infected with a suspension of the appropirate HSV, and then overlaid with nutrient agarose in the form of a gel to ensure that there was no spread of virus throughout the culture. A range of concentrations of compound of known molarity was incorporated in the nutrient agarose overlay. Plaque numbers at each concentration were expressed as percentages of the control and a dose-response curve was drawn. From this curve the 50% inhibitory concentration (IC50) was estimated to be 0.66 μm for the compound of formula (I) in which X represents a 2-bromovinyl group.

[2] = system: HSV2; test: Anti-HSV Activity, plaque reduction assay in Vero cells (HSV-2 strain 186); format: cell-based, Herpes Simplex Virus type 2 (strain 186)
Experimental: as §1

[3] = toxicity / therapeutic index (general statement); conditions: statement in words
[4] = CCID50 (Table 1; method not described); format: cell-based
[5] = system: VZV; test: Anti-VZV Activity, plaque reduction assay in MRC-5 cells; format: cell-based, varicella zoster virus (clinical isolates); conditions: Human alphaherpesvirus 3, MRC5, MRC-5 cells, clinical isolates
Experimental: Clinical isolates of varicella zoster virus (VZV) were assayed in monolayers of MRC-5 cells. MRC-5 cells are derived from human embyonic lung tissue. A plaque reduction assay was used in which a suspension Of the virus stock was used to infect monolayers of the cells in multiwell trays. a range of concentrations of the compound under test of known molarity was added to the wells. Plaque numbers at each concnetration were expressed as percentages of the control and a dose response curve was constructed. From these curves the 50% inhibitory concentration of each drug was determined.

Nc1nc(=O)n([C@H]2C[C@H](O)[C@@H](CO)S2)cc1/C=C/Br [CH=CHBr, NH2, 2'-Deoxy-5-E-(2-bromovinyl)-4'-thiocytidine]
IC50 ([1]; Vero cells, strain SC16, plaque reduction): ~2300 nM
IC50 ([2]; Vero cells, strain 186, plaque reduction): > 10000 nM

Cc1cn([C@H]2C[C@H](O)[C@@H](CO)S2)c(=O)[nH]c1=O [β-4'-thio-thymidine]
activity against HSV1 ([1]; statement in words): good activity
activity against HSV2 ([2]; statement in words): good activity
toxicity [3]: toxic

O=c1[nH]c(=O)n([C@H]2C[C@H](O)[C@@H](CO)S2)cc1/C=C/Br [CH=CHBr, OH, E-5-(2-bromovinyl)-2'-deoxy-4'-thiouridine]
CC50 [4]: > 500000 nM

CCc1cn([C@H]2C[C@H](O)[C@@H](CO)S2)c(=O)[nH]c1=O [CH2 CH3, OH, 2'-Deoxy-5-ethyl-4'thiouridine]
IC50 [5]: 790 nM
